Measurements published in PMC9930781, “Design, synthesis, docking, and anticancer evaluations of new thiazolo[3,2-a] pyrimidines as topoisomerase II inhibitors” (Journal of Enzyme Inhibition and Medicinal Chemistry, 2023).
Like-named read-outs stand apart in the source and are kept apart here.

How the values were obtained:
human topoisomerase II = human topoisomerase II (Homo sapiens, UniProt P11388); test: DNA Topo II inhibition (kDNA decatenation) assay; assay type: biochemical
Protocol: The ATP-dependent decatenation of kinetoplast DNA (kDNA) obtained from Crithidia fasciculata, which consists of a network of numerous minicircles (2.3 Kb) and some maxicircles, was used to measure topoisomerase II inhibition. Reactions took place in 20 μL and comprised topoisomerase II, 200–300 ng of kDNA, and 120 mM KCl with 50 mM Tris-HCl, pH 8, 10 mM MgCl2, 0.5 mM ATP, and 0.5 mM dithiothreitol. In preliminary tests, the quantity of topoisomerase II (5 units) was changed to decatenate almost 100% of the kDNA under these assay circumstances. […] The products in the reaction mixture were separated by a 1% agarose gel after the reaction was complete and then could be seen after being stained with ethidium bromide (0.2 μg/mL). The gels were run at 100 V for about 40 min and visualised under UV transillumination.
This assay is based on the fact that human Topo II can decatenate interlinked double-stranded DNA molecules.

[1] = In vitro cytotoxicity on WI-38 human cell line (MTT); assay type: cell-based; details: WI-38 normal fibroblast cells, WI-38 normal fibroblasts
Protocol: Cell line cells were provided from the American Type Culture Collection cultured in DMEM (Invitrogen/Life Technologies) with 10% FBS (Hyclone), 1% penicillin-streptomycin, and 10 μg/mL insulin (Sigma). The remainder of the chemicals and reagents were provided by either Sigma or Invitrogen. Prior to the MTT assay, plated cells were incubated for 24 h in a 96-well plate with 100 μl of the test substance per well and 100 μl of complete growth medium (cell density 1.2–1.8 × 10,000 cells/well). Cultures were transferred from the incubator and placed in a sterile work area or laminar flow hood. Then, 10% of the culture medium volume of reconstituted MTT was added, and the cultures were incubated for an additional 2 h. After that, cultures were taken out of the incubator, and the formazan crystals were dissolved using MTT solubilising solution [M-8910] in an amount equal to the volume of the original culture medium. The absorbance at 570 nm was measured. Finally, the IC50 of the test compound compared to the reference was calculated using the GraphPad Prism software.

A549 cells [2] = test: Cell cycle analysis by flow cytometry; assay type: cell-based, human; details: A549, 4c at IC50 (2 nM), 24 h (b61 also says 48 h)
Protocol: Briefly, a six-well plate containing lung cancer (A549) cells was seeded with 1 × 10^5 cells per well and then incubated for 24 h. 2 nM of compound 4c or 0.1% DMSO was applied to the cells for 24 h. Following that, cells were gathered and fixed in ice-cold 70% ethanol at 4 °C for 12 h. The cells were then rinsed with cold Phosphate Buffer Saline (PBS) and incubated for 30 min at 37 °C in 0.5 ml of PBS after the ethanol was removed. Propidium iodide was used to stain the cells for 30 min in the dark. DNA content was determined using a flow cytometer.
The cell cycle is required for cell division and replication. The cell cycle was divided into four distinct phases: G1 phase ([…]), S phase (synthesis), G2 phase (interphase), and M phase (mitosis). The G1 phase, also known as the post-mitotic pre-synthesis phase, is distinguished by direct cell division. DNA replication identifies the S phase. The G2 phase, premitotic, or post-synthetic phase, which can be considered the actual division, is when the cell prepares to split into two cells. Finally, the doubled DNA organised in chromosomes is separated during the M- or mitosis-phase division. Many anticancer drugs cause apoptosis, cell cycle arrest, or a combination of both as part of their cytotoxic action.

A549 cells [3] = test: Annexin V-FITC apoptosis assay; assay type: cell-based, human
Protocol: Each well of a 6-well plate received 1 × 10^5 conc. lung cancer (A549) cells that were then incubated for 24 h. The cells were then exposed for 24 h to 2 nM compound 4c or (0.1%) DMSO before being harvested, washed with PBS, and stained for 15 min at room temperature in the dark with annexin V-FITC and PI in binding buffer ([…] at pH 7.4). The flow cytometer was then used to examine the cells.
Apoptotic cell death is a method by which an anticancer agent destroys tumour cells. Therefore, compound 4c was additionally estimated through an Annexin V-FITC experiment utilising A549 cells to evaluate if the cytotoxic action of the novel compound is related to necrosis or apoptosis.

[4] = tested on: MCF7 breast cancer cell line; test: MTT cytotoxicity assay, MCF7; details: SI = IC50 normal cell (WI-38)/IC50 cancer cell (MCF7)
Protocol: (§1) The MTT test was used to evaluate the inhibitory effects of the substances on cell proliferation in the aforementioned cell lines. This colorimetric assay targets the mitochondrial succinate dehydrogenase of living cells to change yellow tetrazolium bromide (MTT) to a purple formazan derivative. […] Then, the cells were incubated for 24 h and exposed to various chemical concentrations. 20 μL of a 5 mg/mL MTT solution was applied after a 24-h drug treatment period and incubated for 4 h. To dissolve the produced purple formazan, each well receives 100 μL of dimethyl sulfoxide (DMSO). […] The formula for calculating the relative percentage of cell viability was (A570 of treated samples/A570 of the untreated sample) × 100.
The newly prepared compounds were screened against three cancer cell lines: namely, breast cancer cell line MCF7, non-small cell lung cancer (NSCLC) cell line A549, and renal cancer cell line A498, using the MTT colorimetric assay.

[5] = tested on: A549 non-small cell lung cancer (NSCLC) cell line; test: MTT cytotoxicity assay, A549
Protocol: as §1

[6] = tested on: A498 renal cell carcinoma cell line; test: MTT cytotoxicity assay, A498
Protocol: as §1

human topoisomerase II, sequence (P11388 whole entry): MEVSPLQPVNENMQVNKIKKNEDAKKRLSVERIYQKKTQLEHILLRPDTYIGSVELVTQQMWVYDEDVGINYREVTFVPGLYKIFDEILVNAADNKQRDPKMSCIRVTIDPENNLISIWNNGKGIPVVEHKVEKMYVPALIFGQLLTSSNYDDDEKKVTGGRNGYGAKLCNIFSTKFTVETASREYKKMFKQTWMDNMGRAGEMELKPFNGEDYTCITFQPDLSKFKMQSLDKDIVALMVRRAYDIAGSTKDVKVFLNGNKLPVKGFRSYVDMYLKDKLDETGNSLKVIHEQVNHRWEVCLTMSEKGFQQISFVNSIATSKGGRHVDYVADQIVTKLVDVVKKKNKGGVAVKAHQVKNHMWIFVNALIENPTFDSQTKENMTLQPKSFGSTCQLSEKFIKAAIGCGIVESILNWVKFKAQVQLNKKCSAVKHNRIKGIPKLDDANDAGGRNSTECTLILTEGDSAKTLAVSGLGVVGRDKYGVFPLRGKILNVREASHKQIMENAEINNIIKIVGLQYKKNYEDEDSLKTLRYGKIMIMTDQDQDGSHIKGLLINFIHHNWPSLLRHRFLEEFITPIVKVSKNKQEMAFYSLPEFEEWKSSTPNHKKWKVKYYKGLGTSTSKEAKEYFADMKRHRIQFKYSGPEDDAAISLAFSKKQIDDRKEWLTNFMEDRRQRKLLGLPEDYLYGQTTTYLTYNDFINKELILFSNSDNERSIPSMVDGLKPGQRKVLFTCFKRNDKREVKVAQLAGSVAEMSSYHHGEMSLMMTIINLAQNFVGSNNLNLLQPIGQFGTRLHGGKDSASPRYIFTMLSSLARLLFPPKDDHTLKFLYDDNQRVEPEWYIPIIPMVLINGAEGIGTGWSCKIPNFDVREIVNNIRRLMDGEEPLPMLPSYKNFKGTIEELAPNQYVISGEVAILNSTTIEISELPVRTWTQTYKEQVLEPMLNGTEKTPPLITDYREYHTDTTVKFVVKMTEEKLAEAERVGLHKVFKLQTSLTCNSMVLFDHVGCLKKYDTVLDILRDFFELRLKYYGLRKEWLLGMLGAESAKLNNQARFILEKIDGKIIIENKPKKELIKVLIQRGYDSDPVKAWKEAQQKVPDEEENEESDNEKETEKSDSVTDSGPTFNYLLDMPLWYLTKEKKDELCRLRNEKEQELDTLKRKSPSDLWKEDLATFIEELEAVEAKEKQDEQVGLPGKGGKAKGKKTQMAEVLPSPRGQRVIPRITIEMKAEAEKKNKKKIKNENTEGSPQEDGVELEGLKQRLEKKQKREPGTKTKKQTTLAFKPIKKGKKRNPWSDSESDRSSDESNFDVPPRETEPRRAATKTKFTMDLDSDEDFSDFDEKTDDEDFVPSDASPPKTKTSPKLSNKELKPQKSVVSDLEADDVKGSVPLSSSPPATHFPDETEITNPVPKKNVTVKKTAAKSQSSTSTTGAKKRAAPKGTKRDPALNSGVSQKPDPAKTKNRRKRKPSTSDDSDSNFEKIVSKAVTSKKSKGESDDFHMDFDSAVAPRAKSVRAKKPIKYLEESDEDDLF

%inh TOPO II (human topoisomerase II; conc 0.1 (μM)): 44% | %inh TOPO II (human topoisomerase II; conc 1 (μM)): 60% | %inh TOPO II (human topoisomerase II; conc 10 (μM)): 79% | %inh TOPO II (human topoisomerase II; conc 100 (μM)): 92% | IC50 (human topoisomerase II; kDNA decatenation, four concentrations 0.1-100 µM, mean ± SD of two independent assays): 230 ± 10 nM | Topo II potency relative to Doxorubicin (IC50 ratio) (human topoisomerase II; versus IC50 of Doxorubicin): 3.6 fold | Topo II potency relative to Etoposide (IC50 ratio) (human topoisomerase II; versus IC50 of Etoposide): 1.4 fold
Compound: CCOC(=O)C1=C(C)N=C2SC=C(NC(=O)c3c(Cl)cc(Cl)cc3Cl)N2C1c1ccc(OC)cc1OC (stereo not drawn) [Compound 4c, Ethyl 5–(2,4-dimethoxyphenyl)-7-methyl-3–(2,4,6-trichlorobenzamido)-5H-thiazolo[3,2-a]pyrimidine-6-carboxylate]
IC50 at 24 h [1]: 15500 ± 840 nM | %G2/M (A549 cells [2]; control 13.97): 4.04% | %S (A549 cells [2]; control 29.64): 26.89% | %G0–G1 (A549 cells [2]; control 56.39): 69.07% | elevation in the total apoptosis versus control (A549 cells [3]; A549): 26.47 fold | increase in early apoptotic cells versus control (A549 cells [3]; A549): 61.92 fold | increase in late apoptotic cells versus control (A549 cells [3]; A549): 97 fold | increase in the percentage of necrosis versus control (A549 cells [3]; A549): 2.5 fold | late apoptotic cells (A549 cells [3]; A549, 4c at IC50 (2 nM), control 0.13%): 12.61% | early apoptotic cells (A549 cells [3]; A549, 4c at IC50 (2 nM), control […]): 24.15% | Selectivity index (SI) MCF7 [4]: 7770 | IC50 ([5]; Homo sapiens, A549, 24 h, read-out: Cytotoxicity IC50 A549± SD, MTT, A549, 24 h treatment, mean ± SD of two independent assays): 2 nM | Selectivity index (SI) A549 ([5]; SI = IC50 normal cell (WI-38)/IC50 cancer cell (A549)): 7770 | IC50 ([5]; read-out: Cytotoxicity IC50 A549± SD, MTT, A549, 24 h treatment, mean ± SD of two independent assays): 1 nM | IC50 ([6]; Homo sapiens, A498, 24 h, read-out: Cytotoxicity IC50 A498± SD, MTT, A498, 24 h treatment, mean ± SD of two independent assays): 1 nM | Selectivity index (SI) A498 ([6]; SI = IC50 normal cell (WI-38)/IC50 cancer cell (A498)): 15540 | IC50 ([6]; read-out: Cytotoxicity IC50 A498± SD, MTT, A498, 24 h treatment, mean ± SD of two independent assays): 2 nM
